Reference: patent US20260373136A1, “A NOVEL DOSAGE REGIMEN USING LOW DOSES OF DONEPEZIL OR DERIVATIVE THEREOF FOR PREVENTING OR TREATING A COMPULSIVE DISORDER” (SORBONNE UNIVERSITE, priority 2022, published 2026)

Assays:
AChE = settings: background statement; cited from earlier work
[1] = Clinical observation of eating disorder behaviours and cognitions of anorexic patients treated with donepezil; type: in vivo, human
Protocol: (§1) 6 anorexic patients were treated with donepezil: 5 of them with a daily dose according to the present invention and 1 with a higher dose (comparative).
(§2) The studies were led in hospital. Each case is presented below.
(§3) Patient #2 is a person who developed anorexia nervosa restricting type in adolescence. They were very restricted in the types of food they ate and could not eat food that was processed or high in sugar or fats. They exercised 3-4 hours a day. They were unable to reduce their exercising even minimally […] becoming flooded with debilitating anxiety. They were unable to eat enough to maintain a healthy weight. Their BMI was 18.5 kg/m^2 and was medically stable when they started donepezil.
(§4) The treatment started with a daily dose of donepezil of 0.5 mg for 10 days then the daily dose was increased to 1 mg for 7 days then increased to 1.5 mg for 71 days (2 months and 10 days) then increased to 2 mg for 22 days and then increased to 2.5 mg and remains on this dose for 4 months and 18 days.
Patient #3 is a person with a 20-year history of anorexia nervosa binge/purge type who had been in recovery for two years before relapsing following a relationship trauma. They were slowly losing weight and was bingeing and purging multiple times every evening. They also were waking up every morning at 4 am to exercise obsessively for hours. They were spending all their disposable income on binge foods and was slowly draining their savings. At times they were stealing food to binge on.
The treatment started with a daily dose of donepezil of 0.5 mg for 10 days and then the daily dose was increased to 1 mg for 9 days and then increased to 1.5 mg for 17 days and then increased to 2 mg for 7 days and then increased to 2.5 mg for 16 days and then discontinued.
(§5) The treatment started with a daily dose of donepezil of 0.5 mg for 13 days then the daily dose was increased to 0.75 mg for 9 days then increased to 1 mg for 17 days and then increased to 1.5 mg and remained at this dosage for a month then stopped for two months and then restarted with a daily dose of 1.5 mg that remains within 1 month and then discontinued.
A patient who has suffered from anorexia nervosa during their second pregnancy. They have been vigilant about their caloric intake and body image since their adolescence. They also suffer from recurrent depression treated with venlafaxine 75 mg per day and a generalized anxiety disorder. Undernutrition worsened markedly, reaching a minimum BMI of 11 kg/m^2. The maximum lifetime BMI excluding pregnancy is 19.8 kg/m^2. The symptomatology is dominated by qualitative and quantitative food restriction and physical hyperactivity. There is a period of several months of hyperphagia and provoked vomiting. Neurocognitive executive functions are preserved, there is a high tolerance of delayed reward measured by Delay Discounting Task.
Donepezil was taken at a rate of 2.5 mg per day for 2 months.
A person with a 20-year history of anorexia nervosa-binge/purge subtype and a comorbid history or obsessive-compulsive disorder. They have been very symptomatic throughout their adolescence and went into a partial remission in early adulthood. Over the next 10 years, their symptoms waxed and waned and they had 2 major relapses that they had slowly recovered from. They were currently weight restored but following some environmental stresses, was starting to relapse. They were struggling with increasing eating disordered ruminations and cognitions, increasing body image distortions and dissatisfaction. They were becoming more rigid and restrictive in their eating. They also saw a rise in their obsessive-compulsive disorder symptoms.
The treatment started with a daily dose of donepezil of 0.5 mg for 8 days and then the daily dose was increased to 1 mg for 9 days and then increased to 1.67 mg for 62 days and then increased to 2.5 mg.

[2] = Body weight / BMI of anorexic patients treated with donepezil; type: in vivo, human
Protocol: The term “Body Mass Index” (BMI) is calculated by dividing the body mass of an individual (in kg) by his height (in […]). The BMI is generally used to evaluate if an individual suffers from under nutrition or on the contrary if he/she suffers from overweight or obesity.
as §1, §2, §3, §4, §5
A patient who has suffered from anorexia nervosa during their second pregnancy. They have been vigilant about their caloric intake and body image since their adolescence. […] The symptomatology is dominated by qualitative and quantitative food restriction and physical hyperactivity. […] Neurocognitive executive functions are preserved, there is a high tolerance of delayed reward measured by Delay Discounting Task. […]

[3] = Patient #2, daily dose 0.5-2.5 mg, over the next 5 months
[4] = Patient #3, daily dose 0.5-2.5 mg, within a month of starting
[5] = Patient #6, daily dose 0.5 mg to 2.5 mg, over 3 months

## COc1cc2c(cc1OC)C(=O)C(CC1CCN(Cc3ccccc3)CC1)C2 (stereo not drawn) [donepezil]
AChE
  inhibition of AChE: reversible and selective inhibitor of AChE
[1]; [3]
  flexibility with eating: able to be more flexible with their eating and incorporate a wider variety of foods
  preoccupation with weight or appearance: much less preoccupied with their weight or appearance
  ruminations and compulsions to exercise: decrease in ruminations and compulsions to exercise
[1]; Patient #2, daily dose 0.5-2.5 mg, over the next 5 months, exercised 3-4 hours a day before
  exercise per day: 90 minutes a day
[1]; [4]
  bingeing (and consequent purging): able to reduce their bingeing (and consequent purging) significantly
  stealing food: stopped stealing food completely
[1]; Patient #3, daily dose 0.5-2.5 mg, within a month of starting, all disposable income before
  maximum spending on binge foods: ≤ 5.00 $
[1]; Patient #4, daily dose 1.5 mg, within a month
  flexibility with eating and eating disordered cognitions: more flexible with their eating and less preoccupied with their eating disordered cognitions and urges to restrict and lose weight
[1]; Patient #4, donepezil restarted for a month at 1.5 mg daily, improvements continued after discontinuing
  flexibility with eating and weight after restart: more flexible with their eating, and they started to gain weight slowly
[1]; Patient #4, two months without donepezil after 1st month at 1.5 mg daily
  eating disordered cognitions after stopping medication: increasing rigidity in their eating disordered cognitions
[1]; Patient #5, 2.5 mg per day for 2 months, end of treatment period
  ease of eating: began to eat more easily
[1]; [5]
  eating disordered cognitions and ruminations: significant decrease in their eating disordered cognitions and ruminations
  intensity of body image distress: reduction in the intensity of their body image distress
[1]; low dose between 0.5 and 2.5 mg/day, clinical cases overall (conclusion)
  usefulness to treat anorexia and related compulsive behaviors: useful to treat anorexia and related compulsive behaviors
[2]; Patient #2, daily dose 0.5-2.5 mg, over the next 5 months, BMI 18.5 kg/m^2 at start, maintained
  BMI: over 20 kg/m^2
[2]; Patient #4, daily dose 1.5 mg, within a month, BMI plateaued after rise to 15 kg/m^2 before treatment
  BMI: 15.6 kg/m^2
[2]; Patient #5, 2.5 mg per day for 2 months, from 27 kg, in 3 months
  body weight: 36 kg
